The target of this experiment is T1, Dihydrofolate reductase (Bacillus anthracis, UniProt Q81R22).
T1 sequence (Q81R22 whole entry): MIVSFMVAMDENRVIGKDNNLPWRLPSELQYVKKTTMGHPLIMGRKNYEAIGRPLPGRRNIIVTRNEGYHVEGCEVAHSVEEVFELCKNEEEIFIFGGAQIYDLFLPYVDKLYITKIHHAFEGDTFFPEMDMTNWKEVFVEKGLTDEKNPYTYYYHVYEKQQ
In words: Inhibition of Bacillus anthracis DHFR.

pIC50: −log10 of the molar value.

Turning to `CN(c1ccc(C(=O)NC(CCC(=O)O)C(=O)O)cc1)c1cnc2nc(N)nc(N)c2n1` (stereo unspecified), the pIC50 (in general, the IC50 on a negative log10 scale, so that one unit is a factor of ten) was 7.82.
